The results in this text go back to patent US20250296959A1, “B7-H3 TARGETING PEPTIDES AND CONSTRUCTS THEREOF” (Mariana Oncology Inc., priority 2024, published 2025).

The experiment deals with T1, human 4lg B7-H3 (Homo sapiens, UniProt Q5ZPR3).
T1 sequence (Q5ZPR3 29-534): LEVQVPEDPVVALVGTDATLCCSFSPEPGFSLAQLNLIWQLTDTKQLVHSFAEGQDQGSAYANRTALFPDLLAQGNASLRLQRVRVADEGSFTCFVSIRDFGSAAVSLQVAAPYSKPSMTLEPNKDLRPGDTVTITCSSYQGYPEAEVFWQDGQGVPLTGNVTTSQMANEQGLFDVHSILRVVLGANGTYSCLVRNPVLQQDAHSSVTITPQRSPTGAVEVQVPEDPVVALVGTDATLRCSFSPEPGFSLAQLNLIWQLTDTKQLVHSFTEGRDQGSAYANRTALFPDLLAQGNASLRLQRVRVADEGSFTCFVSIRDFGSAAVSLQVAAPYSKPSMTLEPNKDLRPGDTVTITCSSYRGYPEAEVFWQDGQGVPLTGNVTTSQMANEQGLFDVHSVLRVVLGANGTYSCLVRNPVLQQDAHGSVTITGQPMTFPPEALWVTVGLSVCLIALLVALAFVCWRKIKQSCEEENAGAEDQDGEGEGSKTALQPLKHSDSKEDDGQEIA
The experiment can be described thus: Affinity determination by surface plasmon resonance (SPR) to 4Ig B7-H3. To be noted: 4Ig B7-H3.

[1] abbreviates: SPR KD—25° C., 25° C. flow cell temperature.
The mark [2] stands for this setting: SPR KD—37° C., 37° C. flow cell temperature.

Starred links: 1 amine or outer side, 2 acyl side, 3 side chain; linkers in the order of their positions; H or OH if unused. Positions of bridges follow the written chain, without caps; N, C: chain ends. Non-standard residues stand in square brackets, D forms with d. Residues, ends and D or L forms follow the SMILES beside them. Groups on a side chain read outwards from the residue. ξ: configuration not given here. *: point of attachment. Ala(1-CH2CO2H-4-piperidyl) = N[C@@H](CC1CCN(CC(=O)O)CC1)C(=O)O; Ala(piperidin-4-yl) = O=C([C@H](CC1CCN([*:3])CC1)N[*:1])[*:2]; DOTA = O=C(O)CN1CCN(CC(=O)O)CCN(CC(=O)*)CCN(CC(=O)O)CC1; Phe(4-COOH) = N[C@@H](Cc1ccc(C(=O)O)cc1)C(=O)O; Trp(5-F) = N[C@@H](Cc1c[nH]c2ccc(F)cc12)C(=O)O; Trp(5-Me) = Cc1ccc2[nH]cc(C[C@H](N)C(=O)O)c2c1; γGlu = O=C(O)[C@H](CCC(=O)[*:2])N[*:1]; 1Nal = N[C@@H](Cc1cccc2ccccc12)C(=O)O; Ala(4-THP) = N[C@@H](CC1CCOCC1)C(=O)O; AEF = NCCOc1ccc(C[C@H](N)C(=O)O)cc1; αMeY = C[C@](N)(Cc1ccc(O)cc1)C(=O)O; Val(3-OH) = CC(C)(O)[C@H](N)C(=O)O; Cha = N[C@@H](CC1CCCCC1)C(=O)O; Tle = CC(C)(C)[C@H](N)C(=O)O; hLeu = CC(C)CC[C@H](N)C(=O)O; Nle = CCCC[C@H](N)C(=O)O; ξF = NC(Cc1ccccc1)C(=O)O; Sar = CNCC(=O)O

Take `CC(=O)N[C@@H](CCC(C)C)C(=O)N[C@@H](Cc1ccc(O)cc1)C(=O)N[C@H]1CSSC[C@@H](C(=O)N[C@@H](Cc2c[nH]c3ccc(F)cc23)C(=O)N[C@@H](Cc2ccccc2)C(=O)N2CCC[C@H]2C(N)=O)NC(=O)[C@H](Cc2ccc(O)cc2)NC(=O)[C@H](C(C)C)NC(=O)[C@H](CC(=O)O)NC(=O)[C@H](Cc2ccc(C(=O)O)cc2)NC(=O)[C@H](CCCCNC(=O)CN2CCN(CC(=O)O)CCN(CC(=O)O)CCN(CC(=O)O)CC2)NC(=O)CNC(=O)[C@H](C(C)C)NC1=O` [compound 289, Ac-hLeu-Y-C-V-G-Lys(DOTA)-4COOHPhe-D-V-Y-C-5FW-F-Pro-CONH2] (Ac-[hLeu]YCVGK(DOTA)[Phe(4-COOH)]DVYC[Trp(5-F)]FP-NH2; disulfide 3-11): the Kd under setting [1] fell in the range of 1 to 10 nM. On to `CC(=O)N[C@@H](CCC(C)C)C(=O)N[C@@H](Cc1ccc(O)cc1)C(=O)N[C@H]1CSSC[C@@H](C(=O)N[C@@H](Cc2c[nH]c3ccc(F)cc23)C(=O)N[C@@H](Cc2ccccc2)C(=O)N[C@H](C(N)=O)C(C)(C)O)NC(=O)[C@H](Cc2ccc(O)cc2)NC(=O)[C@H](C(C)C)NC(=O)[C@H](CC(=O)O)NC(=O)[C@H](CC2CCCCC2)NC(=O)[C@H](CCCCNC(=O)CN2CCN(CC(=O)O)CCN(CC(=O)O)CCN(CC(=O)O)CC2)NC(=O)CNC(=O)[C@H](C(C)C)NC1=O` [compound 201, Ac-hLeu-Y-C-V-G-Lys(DOTA)-CHA-D-V-Y-C-5FW-F-hydroxyVal-CONH2] (Ac-[hLeu]YCVGK(DOTA)[Cha]DVYC[Trp(5-F)]F[Val(3-OH)]-NH2; disulfide 3-11), for which the dissociation constant (Kd) under setting [1] lay within 1 to 10 nM.

Under setting [1], `CC(=O)N[C@@H](CCC(C)C)C(=O)N[C@@H](Cc1ccc(O)cc1)C(=O)N[C@H]1CSSC[C@@H](C(=O)N[C@@H](Cc2cccc3ccccc23)C(=O)N[C@@H](Cc2ccccc2)C(=O)N2CCC[C@H]2C(=O)N[C@H](CCCCNC(=O)CC[C@H](NC(=O)CC[C@H](NC(=O)CC[C@H](NC(=O)CN2CCN(CC(=O)O)CCN(CC(=O)O)CCN(CC(=O)O)CC2)C(=O)O)C(=O)O)C(=O)O)C(N)=O)NC(=O)[C@H](Cc2ccc(O)cc2)NC(=O)[C@H](C(C)C)NC(=O)[C@H](CC(=O)O)NC(=O)[C@H](CC2CCCCC2)NC(=O)[C@H](CC2CCNCC2)NC(=O)CNC(=O)[C@H](C(C)(C)C)NC1=O` [compound 278, Ac-hLeu-Y-C-Tbg-G-PipAla-CHA-D-V-Y-C-1Nal-F-Pro-dLys(gE-gE-DOTA)-CONH2] (Ac-[hLeu]YC[Tle]G[Ala(piperidin-4-yl)][Cha]DVYC[1Nal]FP[dK]([γGlu-γGlu-γGlu-DOTA])-NH2; disulfide 3-11) yielded a Kd of 1 to 10 nM. Take `CC(=O)N[C@@H](CCC(C)C)C(=O)N[C@@H](Cc1ccc(O)cc1)C(=O)N[C@H]1CSSC[C@@H](C(=O)N[C@@H](Cc2c[nH]c3ccccc23)C(=O)N[C@@H](Cc2ccccc2)C(=O)N[C@H](C(=O)N[C@H](C)C(N)=O)[C@@H](C)O)NC(=O)[C@H](Cc2ccc(O)cc2)NC(=O)[C@H](C(C)C)NC(=O)[C@H](CC(=O)O)NC(=O)[C@H](Cc2ccc(OCCNC(=O)CN3CCN(CC(=O)O)CCN(CC(=O)O)CCN(CC(=O)O)CC3)cc2)NC(=O)[C@H](CCCCN)NC(=O)CNC(=O)[C@H](C(C)C)NC1=O` [compound 136, Ac-hLeu-Y-C-V-G-K-AEF(DOTA)-D-V-Y-C-W-F-Thr-dAla-CONH2] (Ac-[hLeu]YCVGK[AEF](DOTA)DVYCWFT[dA]-NH2; disulfide 3-11): the Kd under setting [2] is less than 1 nM.

Regarding `COc1ccc(C[C@@H]2NC(=O)[C@H](C(C)C)NC(=O)[C@H](CC(=O)O)NC(=O)[C@H](Cc3ccc(O)cc3)NC(=O)[C@H](CCCCN)NC(=O)CNC(=O)[C@H](C(C)C)NC(=O)[C@@H](NC(=O)[C@H](Cc3ccc(O)cc3)NC(=O)[C@H](CCC(C)C)NC(C)=O)CSSC[C@@H](C(=O)N[C@@H](Cc3c[nH]c4ccc(F)cc34)C(=O)N[C@@H](Cc3ccccc3)C(=O)N[C@H](C(=O)N[C@H](CCCCNC(=O)CN3CCN(CC(=O)O)CCN(CC(=O)O)CCN(CC(=O)O)CC3)C(N)=O)[C@@H](C)O)NC2=O)cc1` [compound 171, Ac-hLeu-Y-C-V-G-K-Y-D-V-OMeTyr-C-5FW-F-Thr-dLys(DOTA)-CONH2] (Ac-[hLeu]YCVGKYDVY(Me)C[Trp(5-F)]FT[dK](DOTA)-NH2; disulfide 3-11), under setting [1], the Kd was less than 1 nM. Compound `CC(=O)N[C@@H](CCC(C)C)C(=O)N[C@@H](Cc1ccc(O)cc1)C(=O)N[C@H]1CSSC[C@@H](C(=O)N[C@@H](Cc2c[nH]c3ccc(F)cc23)C(=O)N[C@@H](Cc2ccccc2)C(=O)N[C@H](C(=O)N[C@H](CCC(=O)O)C(N)=O)C(C)(C)O)NC(=O)[C@H](Cc2ccc(O)cc2)NC(=O)[C@H](C(C)C)NC(=O)[C@H](CC(=O)O)NC(=O)[C@H](CC2CCN(CC(=O)O)CC2)NC(=O)[C@H](CCCCNC(=O)CN2CCN(CC(=O)O)CCN(CC(=O)O)CCN(CC(=O)O)CC2)NC(=O)CNC(=O)[C@H](C(C)(C)C)NC1=O` [compound 421, Ac-hLeu-Y-C-Tbg-G-Lys(DOTA)-Pip(CH2COOH)Ala-D-V-Y-C-5FW-F-hydroxyVal-dGlu-CONH2] (Ac-[hLeu]YC[Tle]GK(DOTA)[Ala(1-CH2CO2H-4-piperidyl)]DVYC[Trp(5-F)]F[Val(3-OH)][dE]-NH2; disulfide 3-11) yielded a Kd under setting [2] of 1 to 10 nM.

For `CCCC[C@H](NC(C)=O)C(=O)N[C@@H](Cc1ccc(O)cc1)C(=O)N[C@H]1CSSC[C@@H](C(=O)N[C@@H](Cc2c[nH]c3ccccc23)C(=O)N[C@@H](Cc2ccccc2)C(=O)N[C@@H](CCCCN)C(=O)N[C@H](CCCCNC(=O)CN2CCN(CC(=O)O)CCN(CC(=O)O)CCN(CC(=O)O)CC2)C(N)=O)NC(=O)[C@H](Cc2ccc(O)cc2)NC(=O)[C@H](C(C)C)NC(=O)[C@H](CC(=O)O)NC(=O)[C@H](Cc2ccc(O)cc2)NC(=O)[C@H](CCCCN)NC(=O)CNC(=O)[C@H](C(C)C)NC1=O` [compound 86, Ac-Nle-Y-C-V-G-K-Y-D-V-Y-C-W-F-Lys-dLys(DOTA)-CONH2] (Ac-[Nle]YCVGKYDVYCWFK[dK](DOTA)-NH2; disulfide 3-11), under setting [1], the equilibrium dissociation constant (Kd) was in the range of 10 to 100 nM. For `CC(=O)N[C@@H](CCC(C)C)C(=O)N[C@@H](Cc1ccc(O)cc1)C(=O)N[C@H]1CSSC[C@@H](C(=O)N[C@@H](Cc2c[nH]c3ccc(F)cc23)C(=O)N[C@@H](Cc2ccccc2)C(=O)N[C@H](C(=O)N[C@H](CCCCNC(=O)CN2CCN(CC(=O)O)CCN(CC(=O)O)CCN(CC(=O)O)CC2)C(=O)O)C(C)(C)O)NC(=O)[C@H](Cc2ccc(O)cc2)NC(=O)[C@H](C(C)C)NC(=O)[C@H](CC(=O)O)NC(=O)[C@H](CC2CCOCC2)NC(=O)[C@H](CCCCN)NC(=O)CN(C)C(=O)[C@H]([C@@H](C)O)NC1=O` [compound 386, Ac-hLeu-Y-C-Thr-Sar-K-ThpA-D-V-Y-C-5FW-F-hydroxyVal-dLys(DOTA)-COOH] (Ac-[hLeu]YCT[Sar]K[Ala(4-THP)]DVYC[Trp(5-F)]F[Val(3-OH)][dK](DOTA)-OH; disulfide 3-11), the equilibrium dissociation constant (Kd) under setting [2] is 1 to 10 nM. Still for that read-out and setting: to `CC(=O)N[C@@H](CCC(C)C)C(=O)N[C@@H](Cc1ccc(O)cc1)C(=O)N[C@H]1CSSC[C@@H](C(=O)N[C@@H](Cc2c[nH]c3ccc(C)cc23)C(=O)N[C@@H](Cc2ccccc2)C(=O)N[C@H](C(=O)N[C@H](CCCCNC(=O)CN2CCN(CC(=O)O)CCN(CC(=O)O)CCN(CC(=O)O)CC2)C(=O)O)C(C)(C)O)NC(=O)[C@H](Cc2ccc(O)cc2)NC(=O)[C@H](C(C)C)NC(=O)[C@H](CC(=O)O)NC(=O)[C@H](CC2CCOCC2)NC(=O)[C@H](CC2CCNCC2)NC(=O)CNC(=O)[C@H](C(C)(C)C)NC1=O` [compound 471, Ac-hLeu-Y-C-Tbg-G-PipAla-ThpA-D-V-Y-C-5MeW-F-hydroxyVal-dLys(DOTA)-COOH] (Ac-[hLeu]YC[Tle]G[Ala(piperidin-4-yl)][Ala(4-THP)]DVYC[Trp(5-Me)]F[Val(3-OH)][dK](DOTA)-OH; disulfide 3-11) belongs 1 to 10 nM. With `CC(=O)N[C@@H](CCC(C)C)C(=O)N[C@@H](Cc1ccc(O)cc1)C(=O)N[C@H]1CSSC[C@@H](C(=O)N[C@@H](Cc2cccc3ccccc23)C(=O)NC(Cc2ccccc2)C(=O)N2CCC[C@H]2C(=O)N[C@H](CCCCNC(=O)CC[C@H](NC(=O)CC[C@H](NC(=O)CC[C@H](NC(=O)CN2CCN(CC(=O)O)CCN(CC(=O)O)CCN(CC(=O)O)CC2)C(=O)O)C(=O)O)C(=O)O)C(N)=O)NC(=O)[C@H](Cc2ccc(O)cc2)NC(=O)[C@H](C(C)C)NC(=O)[C@H](CC(=O)O)NC(=O)[C@H](CC2CCOCC2)NC(=O)[C@H](CCCCN)NC(=O)CNC(=O)[C@H](C(C)(C)C)NC1=O` (stereo partly drawn) [compound 276, Ac-hLeu-Y-C-Tbg-G-K-ThpA-D-V-Y-C-1Nal-F-Pro-dLys(gE-gE-gE-DOTA)-CONH2] (Ac-[hLeu]YC[Tle]GK[Ala(4-THP)]DVYC[1Nal][ξF]P[dK]([γGlu-γGlu-γGlu-DOTA])-NH2; disulfide 3-11), the Kd under setting [1] was in the range of 1 to 10 nM. The same measure, in the same setting: next, `CC(=O)N[C@@H](CCC(C)C)C(=O)N[C@@](C)(Cc1ccc(O)cc1)C(=O)N[C@H]1CSSC[C@@H](C(=O)N[C@@H](Cc2c[nH]c3ccc(F)cc23)C(=O)N[C@@H](Cc2ccccc2)C(=O)N[C@H](C(=O)N[C@H](CCCCNC(=O)CN2CCN(CC(=O)O)CCN(CC(=O)O)CCN(CC(=O)O)CC2)C(N)=O)[C@@H](C)O)NC(=O)[C@H](Cc2ccc(O)cc2)NC(=O)[C@H](C(C)C)NC(=O)[C@H](CC(=O)O)NC(=O)[C@H](Cc2ccc(O)cc2)NC(=O)[C@H](CCCCN)NC(=O)CNC(=O)[C@H](C(C)C)NC1=O` [compound 195, Ac-hLeu-aMeTyr-C-V-G-K-Y-D-V-Y-C-5FW-F-Thr-dLys(DOTA)-CONH2] (Ac-[hLeu][αMeY]CVGKYDVYC[Trp(5-F)]FT[dK](DOTA)-NH2; disulfide 3-11): 10 to 100 nM.
